According to ChEMBL document CHEMBL2406963, “Tetrazole and triazole as bioisosteres of carboxylic acid: discovery of diketo tetrazoles and diketo triazoles as anti-HCV agents” (Bioorg Med Chem Lett, 2013):

Key:
[1] = tested on: Hepatitis C virus; assay: Antiviral activity against HCV infected in human Huh7 cells assessed as inhibition of viral replication by measuring EGFP autofluorescence at 50 uM by CCK8 assay relative to control; format: functional, Hepacivirus hominis; details: Huh-7
[2] = Cytotoxicity against human HuH7 cells; format: cell-based, Huh-7
[3] = Selectivity index, ratio of CC50 for human HuH7 cells to EC50 for HCV; set-up: species or system Huh-7
[4] = tested on: Hepatitis C virus; assay: Inhibition of NS5A protein synthesis in HCV by Western blot analysis; format: functional, organism-based; details: Hepacivirus hominis
[5] = tested on: Hepatitis C virus; assay: Antiviral activity against HCV infected in human Huh7 cells assessed as inhibition of viral replication by measuring EGFP autofluorescence by CCK8 assay; format: functional, organism-based, Hepacivirus hominis; details: Huh-7
[6] = tested on: Hepatitis C virus; assay: Inhibition of viral genome mRNA expression in HCV by RT-PCR analysis; format: functional, organism-based; details: Hepacivirus hominis
[7] = tested on: Hepatitis C virus; assay: Antiviral activity against HCV infected in human Huh7 cells assessed as inhibition of viral replication by measuring EGFP autofluorescence at 2 uM by CCK8 assay relative to control; format: functional, Hepacivirus hominis; details: Huh-7

Structure (SMILES)	inhibition at 50 µM [1] [%]	also measured
O=C(CC(=O)c1nnc[nH]1)c1ccc(OCc2ccc(F)cc2)cc1	69.7	CC50 [2]: > 500 µM; Ratio CC50/EC50 [3]: >128; inhibition [4]: Dose-dependent effect; EC50 [5]: 3.9 µM; inhibition [6]: Dose-dependent effect
O=C(CC(=O)c1nnn[nH]1)c1cccc(OCc2ccccc2)c1	11.1	–
O=C(/C=C(\O)c1nnn[nH]1)c1c[nH]c2ccc(Cl)cc12	24.3	–
O=C(CC(=O)c1nnc[nH]1)c1cccc(OCc2ccc(Cl)cc2)c1	29.2	–
O=C(CC(=O)c1ccccc1OCc1ccc(Cl)cc1)c1nnn[nH]1	36.2	–
O=C(CC(=O)c1nnc[nH]1)c1cccc(OCc2ccccc2)c1	48.2	–
O=C(CC(=O)c1nnc[nH]1)c1ccc(OCc2ccc(Cl)cc2)cc1	70.2	CC50 [2]: > 500 µM; Ratio CC50/EC50 [3]: >77; EC50 [5]: 6.5 µM
O=C(CC(=O)c1ccccc1OCc1ccc(F)cc1)c1nnn[nH]1	6.8	–
O=C(CC(=O)c1nnn[nH]1)c1cccc(OCc2ccc(F)cc2)c1	62.7	–
O=C(CC(=O)c1nnn[nH]1)c1ccc(OCc2ccc(Cl)cc2)cc1	64.9	–
O=C(CC(=O)c1nnn[nH]1)c1ccccc1	-1.3	–
O=C(CC(=O)c1nnn[nH]1)c1ccc(OCc2ccc(F)cc2)cc1	10.7	–
O=C(CC(=O)c1nnn[nH]1)c1ccc(OCc2ccccc2)cc1	54.9	–
O=C(CC(=O)c1ccco1)c1nnc[nH]1	14.5	–
O=C(CC(=O)c1ccccc1OCc1ccc(Cl)cc1)c1nnc[nH]1	53.8	–
O=C(CC(=O)c1nnc[nH]1)c1ccc(OCc2ccccc2)cc1	12.1	–
O=C(CC(=O)c1ccco1)c1nnn[nH]1	0.9	–
COc1ccc(C(=O)CC(=O)c2nnn[nH]2)cc1	28.7	–
O=C(CC(=O)c1ccccc1OCc1ccccc1)c1nnn[nH]1	67.6	CC50 [2]: > 500 µM; Ratio CC50/EC50 [3]: >54; EC50 [5]: 9.2 µM
O=C(CC(=O)c1nnc[nH]1)c1ccccc1	24.8	–
O=C(CC(=O)c1nnc[nH]1)c1cccc(OCc2ccc(F)cc2)c1	43.4	–
O=C(CC(=O)c1ccccc1OCc1ccc(F)cc1)c1nnc[nH]1	55	–
O=C(CC(=O)c1nnn[nH]1)c1ccc([N+](=O)[O-])cc1	14.7	–
O=C(/C=C(\O)c1nc[nH]n1)c1ccc(Cc2ccc(F)cc2)o1 [S-1360]	22.4	–
O=C(CC(=O)c1ccccc1OCc1ccccc1)c1nnc[nH]1	34.4	–
O=C(CC(=O)c1nnn[nH]1)c1cccc(OCc2ccc(Cl)cc2)c1	43.6	–
CC(C)C(=O)OC[C@H]1O[C@@H](n2ccc(N)nc2=O)[C@](C)(F)[C@@H]1OC(=O)C(C)C [MERICITABINE]	–	inhibition at 2 µM [7]: 75.3%
